Assay results reported in patent US8314078B2, “Silver nanoparticles as anti-microbial” (Vascular Vision Pharmaceutical Co., priority 2009, dated 2012).

How the values were obtained:
S. aureus = test: Minimum Inhibition Concentration (MIC) assay, modified micro-broth dilution, S. aureus; format: cell-based, Staphylococcus aureus; settings: for activity against Staphylococcus aureus: at concentrations up to 1.0 μM; for MIC against S. aureus: mean±SEM, n=3, 18 hours at 37° C.
E. coli = test: Minimum Inhibition Concentration (MIC) assay, modified micro-broth dilution, E. coli; format: cell-based, Escherichia coli; settings: for activity against Escherichia coli: at concentrations up to 1.0 μM; for MIC against E. coli: mean±SEM, n=3, 18 hours at 37° C.

Substance | activity against Staphylococcus aureus (S. aureus) | MIC against S. aureus (S. aureus) | activity against Escherichia coli (E. coli) | MIC against E. coli (E. coli)
2,6-diaminopyridinyl heparin [DAPHP] | no activity | >1.0 μM of sugar | no activity | >1.0 μM of sugar
hyaluronan [HA] | no activity | >1.0 μM of sugar | no activity | >1.0 μM of sugar
